Key:
[1] = Tissue distribution and depletion after oral [3H]-CYA for seven consecutive days; assay type: in vivo, Wistar rats; conditions: rats; for Tissue distribution and depletion of CYA (means ± SD) / t1/2 (elimination half-life): oral 10 mg/kg·bw x 7 days; for Tissue distribution and depletion of CYA (means ± SD): n = 4
Procedure: For the tissue distribution study, 24 rats were divided into six groups, one group as a blank control and five groups as five time point groups. Each time point group consisted of 4 rats (2 male and 2 female) administered [^3H]-CYA orally by gavage at 10 mg/kg bw (corresponded to a feed inclusion of approximately 100 mg/kg dose) for seven consecutive days, respectively. Dosing suspensions of [^3H]-CYA (2.08 Ci/mmol) were prepared in 0.5% aqueous carboxymethyl cellulose (CMC) at 4 mg/mL after being diluted with non-radiolabeled CYA to a specific activity of 9,044 dpm/µg. Another group of 4 rats (2 male and 2 female) was fed separately from the radioactive administration group for the blank control under the same conditions, sacrificed at 0 day. One group of 2 male and 2 female rats was randomly selected to be slaughtered at each time point (0.25, 1, 3, 7, and 14 days) after withdrawal. The rats were dissected, and blood, muscle, heart, liver, lung, spleen, kidney, skin, stomach, large intestine, small intestine, brain, cecum, testicle (or ovary), bladder, and bone (thigh bone) were collected separately and stored at −20°C until analysis. The weight of each tissue was recorded. Gastrointestinal tracts were stripped of their contents.
(§1) For radioactivity detection, the samples were combusted by PerkinElmer Oxidizer 307 (PerkinElmer Life and Analytical Sciences). ^3H2O was collected into 20 mL of scintillant (PerkinElmer Life and Analytical Sciences) with 10 mL of Monophase S, and sample radioassays were quantitated by PerkinElmer® TriCarb® 2900 (PerkinElmer Life and Analytical Sciences) with low-level quench-correction. Counting efficiency was above 65%.
(§2) Tissue samples for each sampling time from all animals were homogenized, aliquots of blood and urine were mixed thoroughly, and feces were homogenized in methanol/water (50:50; V/V). Samples of the blood (500 μL), urine (500 μL) feces (500 mg), bone, and all tissues (100–500 mg) were combusted in PerkinElmer Oxidizer 307 after being transferred into tared cones and pads (PerkinElmer Life and Analytical Sciences) and added an aliquot of Combustaid (200 μL; PerkinElmer Life and Analytical Sciences). Radioactivity in the combustion products was determined by collecting ^3H2O into distilled water followed by liquid scintillation counting. Combustion efficiency was determined daily, prior to the combustion of study samples, by using a diluted dose formulation or ^3H standard. The measured radioactivity content in the combusted samples was adjusted using the combustion efficiency values. Samples were analyzed for radioactivity for 5 min. Total residue concentrations were calculated from the specific activity and radioactivity per mass or volume and expressed as molar equivalents of CYA.

[2] = Excretion study, recovery of total radioactivity after single oral [3H]-CYA; assay type: in vivo, Wistar rats
Procedure: For the excretion study, a group of six rats (3 male and 3 female) were housed individually in metabolism cages, which allowed separate collection of urine and feces, and then administered with a single dose of 10 mg/kg bw (corresponded to a feed inclusion of approximately 100 mg/kg dose) [^3H]-CYA by oral gavage. Dosing suspensions of [^3H]-CYA were prepared in 0.5% aqueous CMC at 2 mg/mL after [^3H]-CYA (2.08 Ci/mmol) was diluted with non-radiolabeled CYA to a specific activity of 4.52 × 10^4 dpm/µg. Urine and feces were collected from intact animals for 7 days at 0–12, 12–24, 24–48, 48–72, 72–96, 96–120, 120–144, and 144–168 h after the dose, and the total weight of the urine and feces was recorded after each collection. At the end of the study, the animals are anesthetized, and once it's confirmed that they have lost consciousness, they are euthanized by exsanguination. The samples were stored at −20°C until analysis. Contents of gastrointestinal tracts were pooled with feces of 144–168 h time point. Each metabolism cage was thoroughly rinsed with a mixture of methanol/water (1:1; V/V), and the rinse solvent was collected and weighed. Each cage rinse was stirred thoroughly, […] of subsamples were removed, and radioactivities were analyzed immediately. One animal per gender was administered with non-radiolabeled CYA at the same dose, and animals were sacrificed at 6 h post-dose. Urine, feces, and tissues were collected for the blank controls.
as §1, §2

[3] = rats, single oral 10 mg/kg bw, 7 days

With [3H]c1ccc2c(c1)[n+]([O-])cc(/C=N/NC(=O)CC#N)[n+]2[O-] [[^3H]-CYA] the “Tissue distribution and depletion of CYA (means ± SD)” value ([1]; Bladder, 6 h after withdrawal) was 0.98863 ± 0.19738 mg/kg, the “Tissue distribution and depletion of CYA (means ± SD)” value ([1]; Blood, 6 h after withdrawal) was 1.55298 ± 0.13322 mg/kg and the “Tissue distribution and depletion of CYA (means ± SD)” value ([1]; Blood, 1 d after withdrawal) was 0.78575 ± 0.05613 mg/kg. The “Tissue distribution and depletion of CYA (means ± SD)” value ([1]; Blood, 3 d after withdrawal) was 0.74887 ± 0.0257 mg/kg, the “Tissue distribution and depletion of CYA (means ± SD)” value ([1]; Blood, 7 d after withdrawal) was 0.06989 ± 0.03612 mg/kg and the “t1/2 (elimination half-life)” value ([1]; Blood) was 38.50 h. The “Tissue distribution and depletion of CYA (means ± SD)” value ([1]; Bone, 6 h after withdrawal) was 0.49469 ± 0.05879 mg/kg, the “Tissue distribution and depletion of CYA (means ± SD)” value ([1]; Bone, 1 d after withdrawal) was 0.28043 ± 0.05615 mg/kg and the “Tissue distribution and depletion of CYA (means ± SD)” value ([1]; Brain, 6 h after withdrawal) was 0.62702 ± 0.06033 mg/kg. For the same molecule, the “Tissue distribution and depletion of CYA (means ± SD)” value ([1]; Brain, 1 d after withdrawal) was 0.45064 ± 0.04138 mg/kg, the “Tissue distribution and depletion of CYA (means ± SD)” value ([1]; Caecum, 6 h after withdrawal) was 15.5409 ± 2.03867 mg/kg and the “Tissue distribution and depletion of CYA (means ± SD)” value ([1]; Caecum, 1 d after withdrawal) was 0.56384 ± 0.06558 mg/kg. For the same molecule, the “Tissue distribution and depletion of CYA (means ± SD)” value ([1]; Caecum, 3 d after withdrawal) was 0.02075 ± 0.01112 mg/kg, the “t1/2 (elimination half-life)” value ([1]; Caecum) was 7.45 h and the “Tissue distribution and depletion of CYA (means ± SD)” value ([1]; Heart, 6 h after withdrawal) was 1.091 ± 0.1971 mg/kg. The “Tissue distribution and depletion of CYA (means ± SD)” value ([1]; Heart, 1 d after withdrawal) was 0.66217 ± 0.10149 mg/kg, the “Tissue distribution and depletion of CYA (means ± SD)” value ([1]; Heart, 3 d after withdrawal) was 0.24376 ± 0.04678 mg/kg and the “t1/2 (elimination half-life)” value ([1]; Heart) was 31.50 h. For the same molecule, the “Tissue distribution and depletion of CYA (means ± SD)” value ([1]; Kidney, 6 h after withdrawal) was 6.24527 ± 0.67361 mg/kg, the “Tissue distribution and depletion of CYA (means ± SD)” value ([1]; Kidney, 1 d after withdrawal) was 2.03447 ± 0.34637 mg/kg and the “Tissue distribution and depletion of CYA (means ± SD)” value ([1]; Kidney, 3 d after withdrawal) was 1.14528 ± 0.11569 mg/kg. For the same molecule, the “Tissue distribution and depletion of CYA (means ± SD)” value ([1]; Kidney, 7 d after withdrawal) was 0.08605 ± 0.04177 mg/kg, the “t1/2 (elimination half-life)” value ([1]; Kidney) was 28.88 h and the “Tissue distribution and depletion of CYA (means ± SD)” value ([1]; Large Intestine, 6 h after withdrawal) was 2.32296 ± 0.11341 mg/kg. The “Tissue distribution and depletion of CYA (means ± SD)” value ([1]; Large Intestine, 1 d after withdrawal) was 0.5581 ± 0.05702 mg/kg, the “Tissue distribution and depletion of CYA (means ± SD)” value ([1]; Large Intestine, 3 d after withdrawal) was 0.12977 ± 0.0238 mg/kg and the “t1/2 (elimination half-life)” value ([1]; Large Intestine) was 16.90 h. The “Tissue distribution and depletion of CYA (means ± SD)” value ([1]; Liver, 6 h after withdrawal) was 5.04944 ± 0.37061 mg/kg, the “Tissue distribution and depletion of CYA (means ± SD)” value ([1]; Liver, 1 d after withdrawal) was 2.35504 ± 0.25805 mg/kg and the “Tissue distribution and depletion of CYA (means ± SD)” value ([1]; Liver, 3 d after withdrawal) was 1.4301 ± 0.17539 mg/kg. The “Tissue distribution and depletion of CYA (means ± SD)” value ([1]; Liver, 7 d after withdrawal) was 0.12635 ± 0.04235 mg/kg, the “t1/2 (elimination half-life)” value ([1]; Liver) was 33.00 h and the “Tissue distribution and depletion of CYA (means ± SD)” value ([1]; Lung, 6 h after withdrawal) was 1.88405 ± 0.29415 mg/kg. For the same molecule, the “Tissue distribution and depletion of CYA (means ± SD)” value ([1]; Lung, 1 d after withdrawal) was 1.68108 ± 0.11214 mg/kg, the “Tissue distribution and depletion of CYA (means ± SD)” value ([1]; Lung, 3 d after withdrawal) was 0.79745 ± 0.09581 mg/kg and the “Tissue distribution and depletion of CYA (means ± SD)” value ([1]; Lung, 7 d after withdrawal) was 0.04918 ± 0.01852 mg/kg. For the same molecule, the “t1/2 (elimination half-life)” value ([1]; Lung) was 30.13 h, the “Tissue distribution and depletion of CYA (means ± SD)” value ([1]; Muscle, 6 h after withdrawal) was 0.96902 ± 0.06106 mg/kg and the “Tissue distribution and depletion of CYA (means ± SD)” value ([1]; Muscle, 1 d after withdrawal) was 0.52982 ± 0.05487 mg/kg. The “Tissue distribution and depletion of CYA (means ± SD)” value ([1]; Ovary, 6 h after withdrawal) was 2.88421 ± 0.06688 mg/kg, the “Tissue distribution and depletion of CYA (means ± SD)” value ([1]; Ovary, 1 d after withdrawal) was 0.32655 ± 0.03923 mg/kg and the “Tissue distribution and depletion of CYA (means ± SD)” value ([1]; Ovary, 3 d after withdrawal) was 0.01887 ± 0.00619 mg/kg. The “t1/2 (elimination half-life)” value ([1]; Ovary) was 9.63 h, the “Tissue distribution and depletion of CYA (means ± SD)” value ([1]; Skin/Fat, 6 h after withdrawal) was 1.2996 ± 0.23417 mg/kg and the “Tissue distribution and depletion of CYA (means ± SD)” value ([1]; Skin/Fat, 1 d after withdrawal) was 1.03596 ± 0.07642 mg/kg. The “Tissue distribution and depletion of CYA (means ± SD)” value ([1]; Skin/Fat, 3 d after withdrawal) was 0.42024 ± 0.03644 mg/kg, the “Tissue distribution and depletion of CYA (means ± SD)” value ([1]; Skin/Fat, 7 d after withdrawal) was 0.0253 ± 0.02233 mg/kg and the “Tissue distribution and depletion of CYA (means ± SD)” value ([1]; Small Intestine, 6 h after withdrawal) was 2.86777 ± 0.1072 mg/kg. The “Tissue distribution and depletion of CYA (means ± SD)” value ([1]; Small Intestine, 1 d after withdrawal) was 0.46368 ± 0.12091 mg/kg, the “Tissue distribution and depletion of CYA (means ± SD)” value ([1]; Small Intestine, 3 d after withdrawal) was 0.05785 ± 0.01762 mg/kg and the “t1/2 (elimination half-life)” value ([1]; Small Intestine) was 12.60 h. For the same molecule, the “Tissue distribution and depletion of CYA (means ± SD)” value ([1]; Spleen, 6 h after withdrawal) was 1.1278 ± 0.08725 mg/kg, the “Tissue distribution and depletion of CYA (means ± SD)” value ([1]; Spleen, 1 d after withdrawal) was 0.75931 ± 0.04725 mg/kg and the “Tissue distribution and depletion of CYA (means ± SD)” value ([1]; Spleen, 3 d after withdrawal) was 0.2717 ± 0.05323 mg/kg. For the same molecule, the “Tissue distribution and depletion of CYA (means ± SD)” value ([1]; Spleen, 7 d after withdrawal) was 0.02521 ± 0.04114 mg/kg, the “t1/2 (elimination half-life)” value ([1]; Spleen) was 30.13 h and the “Tissue distribution and depletion of CYA (means ± SD)” value ([1]; Stomach, 6 h after withdrawal) was 2.29013 ± 0.61619 mg/kg. The “Tissue distribution and depletion of CYA (means ± SD)” value ([1]; Stomach, 1 d after withdrawal) was 0.44866 ± 0.04356 mg/kg, the “Tissue distribution and depletion of CYA (means ± SD)” value ([1]; Stomach, 3 d after withdrawal) was 0.14233 ± 0.00993 mg/kg and the “t1/2 (elimination half-life)” value ([1]; Stomach) was 18.24 h. For the same molecule, the “Tissue distribution and depletion of CYA (means ± SD)” value ([1]; Testicle, 6 h after withdrawal) was 1.05196 ± 0.00706 mg/kg, the “Tissue distribution and depletion of CYA (means ± SD)” value ([1]; Testicle, 1 d after withdrawal) was 0.74037 ± 0.07782 mg/kg and the “Tissue distribution and depletion of CYA (means ± SD)” value ([1]; Testicle, 3 d after withdrawal) was 0.3319 ± 0.05429 mg/kg. For the same molecule, the “t1/2 (elimination half-life)” value ([1]; Testicle) was 40.76 h, the “time of maximum concentrations in all detected organs or tissues” value ([1]; oral 10 mg/kg bw for seven consecutive days) was 6 h and the “radioactivity excreted, % of total dose” value ([2]; 0–12 h post-dose) was 21.03%. The “radioactivity excreted, % of total dose” value ([2]; 12–24 h post-dose) was 70.25%, the “drug-related radioactivity excreted, % of administration amount” value ([2]; first 24 h after administration) was 91.28% and the “radioactivity excreted in the feces” value [2, 3] was 60.25%. For the same molecule, the “radioactivity excreted in the urine” value [2, 3] was 34.81%, the “radioactivity of the cage rinse” value [2, 3] was 0.78% and the “radioactivity remaining in the carcass” value [2, 3] was 0.38%. For the same molecule, the “Overall recovery of total radioactivity” value ([2]; rats, single oral 10 mg/kg bw, within 7 days (168 h), n = 6) was 96.22%.

Source: publication PMC11456426, “Study of transport, tissue distribution, depletion, and hepatotoxicity of Cyadox, a quinoxaline-1,4-dioxide derivative” (Frontiers in Pharmacology, 2024)
